Entries after “also recorded” stand apart in the source; their conditions may differ. Counter-ions that a name gives are not always drawn. Like-named read-outs stand apart in the source and are kept apart here.
How the values were obtained:
Chk-1 kinase = Chk-1 kinase (Homo sapiens (Human), UniProt O14757); experiment: Chk-1 kinase inhibiting activity (33P-ATP filter assay, CHKtide substrate); type: biochemical
SW620 = experiment: Potentiation assay with DNA damaging agents in SW620 cells; type: cell-based; settings: SW620 human colon adenocarcinoma
Experimental: (§1) The following protocol was used:
(§2) (a) HT29 cells were seeded in 96-well plates at a concentration of 3000 cells per well and allowed to adhere overnight prior to addition of compound or vehicle control.
(§3) (b) SN38 was prepared from a 10 mM DMSO stock to give a final concentration range of 1 μM, 300 nM, 100 nM, 30 nM, 10 nM, 3 nM, 1 nM, and vehicle control.
(§4) (c) Test compounds were prepared from 10 mM DMSO stocks to typically give a final concentration range of 3 μM, 1 μM, 0.3 μM. 0.1 μM, 0.03 μM and vehicle control. The final DMSO content was 0.4%.
(§5) (d) Test compounds were incubated with the cells for 72 h at 37° C. 5% CO2 in a humidified atmosphere.
(§6) (e) Alamar blue 10% (v/v) was then added and incubated for a further 6 h, and fluorescent product detected using the BMG FLUOstar plate reader.
(§7) (f) Data were analysed using a 4-parameter logistic equation in GraphPad Prism.
(§8) Sensitisation is determined by the enhancement in IC50 of SN38 by the addition of the Chk-1 kinase inhibitor. In the protocol described above, the IC50 for SN-38 is determined the presence of varying doses of the Chk-1 inhibitor. The fold shift represents a decrease in IC50 for SN-38 at a dose of Chk-1 inhibitor that has no effect by itself.
(§9) Using the general protocol set out in Example 67, the compound of Example 4 was tested in potentiation assays against a variety of cell lines in combination with several different DNA damaging anti-cancer agents.

HT29 cells = experiment: Sensitisation of HT29 cells to SN38 (Alamar blue cell growth); type: cell-based, human; settings: HT29 cells
Experimental: Studies were carried out to test the sensitising effect of compounds of the invention on the ability of the DNA damaging compound 7-ethyl-10-hydroxycamptothecin (SN38), an active metabolite of the anti-cancer drug irinotecan, to inhibit cell growth in HT29 cells.
as §1, §2, §3, §4, §5, §6, §7, §8

Calu 6 = experiment: Potentiation assay with DNA damaging agents in Calu 6 cells; type: cell-based; settings: Calu 6 human lung adenocarcinoma, Example 4 at 8 μM
Experimental: as §1, §2, §3, §4, §5, §6, §7, §8, §9

HT29 = experiment: Potentiation assay with DNA damaging agents in HT29 cells; type: cell-based; settings: HT29 human colon cancer; gemcitabine; Example 4 at 4 μM
Experimental: as §1, §2, §3, §4, §5, §6, §7
as §8, with “itself. […]” for “itself.”

MOLM-13 cells = experiment: Inhibition of cell growth in MOLM-13 cells (Alamar blue); type: cell-based; settings: Homo sapiens, 72 h incubation
Experimental: (§10) Studies were carried out to test the effect of compounds on the inhibition of cell growth in MOLM-13 and MV4-11 cells.
as §1
(§11) (a) Cells were seeded in 96-well plates at cell densities of 2500/well (MOLM-13) and 10,000/well (MV4-11). Cells were then incubated overnight prior to addition of compound or vehicle control.
(§12) (b) Test compounds were prepared from 10 mM DMSO stocks to give a final concentration range of 10 μM, 3 μM, 1 μM, 0.3 μM, 0.1 μM, […], […] and vehicle control. The DMSO content was constant at 0.1%.
(§13) (c) Test compounds were incubated with the cells for 72 h at 37° C. 5% CO2 in a humidified atmosphere.
(§14) (d) Alamar blue 10% (v/v) was then added and incubated for a further 4 h, and fluorescent product detected using the BMG FLUOstar plate reader.
(§15) (e) Media only background values were subtracted and the data analysed using a 4-parameter logistic equation in GraphPad Prism.
(§16) From the results obtained by following the above protocol, the IC50 values against MOLM-13 and MV4-11 cells of the compounds of Examples 20, 21, 22, 25, 33, 35, 37, 38, 44, 48, 49, 50, 51, 53, 54 and 55 were determined.

MV4-11 cells = experiment: Inhibition of cell growth in MV4-11 cells (Alamar blue); type: cell-based; settings: Homo sapiens, 72 h incubation
Experimental: as §10, §1, §11, §12, §13, §14, §15, §16

[1] = Chk-1 kinase, Table 3, read-out: IC50
[2] = ranges given, read-out: IC50 values against Chk-1 kinase

Chain of Chk-1 kinase (O14757 whole entry): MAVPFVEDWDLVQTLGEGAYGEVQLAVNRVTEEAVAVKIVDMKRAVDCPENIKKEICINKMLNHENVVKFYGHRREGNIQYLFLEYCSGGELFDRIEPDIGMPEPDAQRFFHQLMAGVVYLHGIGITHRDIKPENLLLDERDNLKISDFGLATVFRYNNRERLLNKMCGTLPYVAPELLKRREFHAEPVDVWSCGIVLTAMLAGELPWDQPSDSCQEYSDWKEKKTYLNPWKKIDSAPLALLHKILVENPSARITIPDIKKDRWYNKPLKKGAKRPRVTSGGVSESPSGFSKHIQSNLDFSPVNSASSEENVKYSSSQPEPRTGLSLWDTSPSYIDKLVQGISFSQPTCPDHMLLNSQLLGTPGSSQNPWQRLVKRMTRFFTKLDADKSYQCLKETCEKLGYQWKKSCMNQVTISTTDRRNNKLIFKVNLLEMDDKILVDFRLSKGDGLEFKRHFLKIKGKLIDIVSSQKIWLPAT

| IC50 (Chk-1 kinase; [1]) | IC50 (Chk-1 kinase; [2]) | IC50 (MOLM-13 cells) | IC50 (MV4-11 cells) | Compound | Potentiation factor (SW620; SN-38, Example 4 at 4 μM) | Potentiation factor (SW620; etoposide, Example 4 at 1 μM) | Potentiation factor (SW620; gemcitabine, Example 4 at 2 μM) | fold shift in the IC50 value of SN38 (HT29 cells; test compound at 1.25 μM) | Potentiation factor (Calu 6; SN-38) | Potentiation factor (Calu 6; etoposide) | Potentiation factor (Calu 6; gemcitabine) | Potentiation factor (HT29) | fold shift in the IC50 value of SN38 (HT29 cells; test compound at 3 μM) | fold shift in the IC50 value of SN38 (HT29 cells; test compound at 1 μM) |
| --- | --- | --- | --- | --- | --- | --- | --- | --- | --- | --- | --- | --- | --- | --- |
| 15 nM | 10 to 100 nM | – | – | N#Cc1cnc(NC(=O)Nc2ccc(CCNCc3ccc(F)cc3)c(Cl)c2)cn1 [Example 4, 1-{3-Chloro-4-[2-(4-fluoro-benzylamino)-ethyl]-phenyl}-3-(5-cyano-pyrazin-2-yl)-urea] | 16.4 | 2.6 | 2.5 | three | 3.7 | 7.6 | 6.1 | 18 | – | – |
| 2.8 nM | < 10 nM | 500 nM | 810 nM | COc1cc(CCNCc2ccc(F)cc2)ccc1NC(=O)Nc1cnc(C#N)cn1 [Example 20, 1-(5-Cyano-pyrazin-2-yl)-3-{4-[2-(4-fluoro-benzylamino)-ethyl]-2-methoxy-phenyl}-urea] | – | – | – | – | – | – | – | – | three; also recorded: greater than ten | – |
| 1.6 nM | < 10 nM | 570 nM | 1000 nM | COc1cc(CCNCc2ccc(F)cc2)c(Cl)cc1NC(=O)Nc1cnc(C#N)cn1 [Example 37, 1-{5-Chloro-4-[2-(4-fluoro-benzylamino)-ethyl]-2-methoxy-phenyl}-3-(5-cyano-pyrazin-2-yl)-urea hydrochloride] | – | – | – | – | – | – | – | – | greater than ten | two |
| 0.28 nM | < 10 nM | 60 nM | 120 nM | COc1ccc(CNCCc2cc(OC)c(NC(=O)Nc3cnc(C#N)cn3)cc2Cl)cc1 [Example 49, 1-{5-Chloro-2-methoxy-4-[2-(4-methoxy-benzylamino)-ethyl]-phenyl}-3-(5-cyano-pyrazin-2-yl)-urea hydrochloride] | – | – | – | – | – | – | – | – | greater than ten | two |
| 1.4 nM | < 10 nM | 1300 nM | 3900 nM | CN1CCN(c2ccc(CNCCc3ccc(NC(=O)Nc4cnc(C#N)cn4)cc3Cl)cc2)CC1 [Example 35, 1-(3-Chloro-4-{2-[4-(4-methyl-piperazin-1-yl)-benzylamino]-ethyl}-phenyl)-3-(5-cyano-pyrazin-2-yl)-urea] | – | – | – | – | – | – | – | – | – | two |
| 0.47 nM | < 10 nM | 100 nM | 190 nM | COc1cccc(CNCCc2cc(OC)c(NC(=O)Nc3cnc(C#N)cn3)cc2Cl)c1 [Example 48, 1-{5-Chloro-2-methoxy-4-[2-(3-methoxy-benzylamino)-ethyl]-phenyl}-3-(5-cyano-pyrazin-2-yl)-urea hydrochloride] | – | – | – | – | – | – | – | – | greater than ten | two |
| 9.1 nM | < 10 nM | 610 nM | 2440 nM | CN1CCN(c2cccc(CNCCc3ccc(NC(=O)Nc4cnc(C#N)cn4)cc3Cl)c2)CC1 [Example 38, 1-(3-Chloro-4-{2-[3-(4-methyl-piperazin-1-yl)-benzylamino]-ethyl}-phenyl)-3-(5-cyano-pyrazin-2-yl)-urea] | – | – | – | – | – | – | – | – | three | – |
| 3 nM | < 10 nM | 1300 nM | 1290 nM | COc1cc(OCCNCc2ccc(F)cc2F)ccc1NC(=O)Nc1cnc(C#N)cn1 [Example 33, 1-(5-Cyano-pyrazin-2-yl)-3-{4-[2-(2,4-difluoro-benzylamino)-ethoxy]-2-methoxy-phenyl}-urea] | – | – | – | – | – | – | – | – | three | – |
| 99 nM | 10 to 100 nM | > 3000 nM | > 3000 nM | COc1cc(CNCc2ccccc2)ccc1NC(=O)Nc1cnc(C#N)cn1 [Example 22, 1-[4-(Benzylamino-methyl)-2-methoxy-phenyl]-3-(5-cyano-pyrazin-2-yl)-urea] | – | – | – | – | – | – | – | – | three; also recorded: greater than ten | – |
| 0.45 nM | < 10 nM | 70 nM | 310 nM | COc1cc(CCNCc2ccc(N3CCN(C)CC3)cc2)c(Cl)cc1NC(=O)Nc1cnc(C#N)cn1 [Example 50, 1-(5-Chloro-2-methoxy-4-{2-[4-(4-methyl-piperazin-1-yl)-benzylamino]-ethyl}-phenyl)-3-(5-cyano-pyrazin-2-yl)-urea hydrochloride] | – | – | – | – | – | – | – | – | – | two |
